According to patent US11434242B2, “Dopamine-b-hydroxylase inhibitors” (BIAL-PORTELA & Cª, S.A., priority 2017, dated 2022):

Biological target: T1, Dopamine beta hydroxylase (Homo sapiens, UniProt P09172)
T1 construct: 125 μl of plasma; tissue Instituto Português do Sangue Transplantação; host or cells: human plasma from healthy donors
T1 sequence (P09172 40-617 limits assumed): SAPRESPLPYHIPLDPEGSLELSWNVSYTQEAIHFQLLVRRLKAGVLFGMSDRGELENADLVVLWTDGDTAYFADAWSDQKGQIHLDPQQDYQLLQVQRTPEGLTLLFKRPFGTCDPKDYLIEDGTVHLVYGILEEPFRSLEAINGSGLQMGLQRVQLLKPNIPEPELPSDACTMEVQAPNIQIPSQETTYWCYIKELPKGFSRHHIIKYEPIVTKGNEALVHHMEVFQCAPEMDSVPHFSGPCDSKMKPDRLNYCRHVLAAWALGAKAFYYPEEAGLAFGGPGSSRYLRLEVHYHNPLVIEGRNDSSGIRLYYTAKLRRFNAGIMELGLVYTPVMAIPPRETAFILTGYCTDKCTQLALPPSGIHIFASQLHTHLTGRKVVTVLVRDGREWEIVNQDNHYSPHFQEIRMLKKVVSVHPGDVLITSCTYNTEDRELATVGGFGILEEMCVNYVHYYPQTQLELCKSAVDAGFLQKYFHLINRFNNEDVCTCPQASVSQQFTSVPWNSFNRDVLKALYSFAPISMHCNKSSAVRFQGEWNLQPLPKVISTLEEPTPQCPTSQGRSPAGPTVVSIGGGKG
Assay: Dopamine beta hydroxylase activity in human plasma
Assay type: biochemical
Details: for Plasma (0.01 μM), activity in % of control: inhibitor 0.01 μM; for Plasma (0.1 μM), activity in % of control: inhibitor 0.1 μM
How it was run: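 Healthy-donor human plasma pre-incubated 10 min at 37° C with compound at final 10, 100 or 1000 nM in pH 5.0 acetate buffer with ascorbate, fumarate, pargyline, N-ethylmaleimide, catalase and copper sulfate. Tyramine substrate then added for 45 min; octopamine formed was isolated by SCX cartridge, periodate-converted and read at 330 nm; activity given as % control.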

Compound	Plasma (0.01 μM), activity in % of control	Plasma (0.1 μM), activity in % of control
CN1CC(NC(=O)Cc2c3n(c(=S)n2C)C[C@H](c2c(F)ccc(Br)c2F)C3)CCC1=O (stereo partly drawn) [Example 457, 2-((S)-6-(3-bromo-2,6-difluorophenyl)-2-methyl-3-thioxo-2,5,6,7-tetrahydro-3H-pyrrolo[1,2-c]imidazol-1-yl)-N-(1-methyl-6-oxopiperidin-3-yl)acetamide]	42.1 % of control	7.3 % of control
Cn1c(CC(=O)N2CCC(CF)C2)c2n(c1=S)C[C@H](c1c(F)ccc(Br)c1F)C2 (stereo partly drawn) [Example 458, 2-((S)-6-(3-bromo-2,6-difluorophenyl)-2-methyl-3-thioxo-2,5,6,7-tetrahydro-3H-pyrrolo[1,2-c]imidazol-1-yl)-1-(3-(fluoromethyl)pyrrolidin-1-yl)ethan-1-one]	58.5 % of control	12.2 % of control
Cn1c(CC(=O)N[C@H]2CCOC2)c2n(c1=S)C[C@H](c1c(F)ccc(Br)c1F)C2 [Example 459, 2-((S)-6-(3-bromo-2,6-difluorophenyl)-2-methyl-3-thioxo-2,5,6,7-tetrahydro-3H-pyrrolo[1,2-c]imidazol-1-yl)-N—((S)-tetrahydrofuran-3-yl)acetamide]	65.6 % of control	13.5 % of control
[2H]C([2H])([2H])n1c(CC(=O)N2CCOCC2)c2n(c1=S)C[C@H](c1c(F)ccc(Cl)c1F)C2 [Example 460, (S)-2-(6-(3-chloro-2,6-difluorophenyl)-2-(methyl-d)-3-thioxo-2,5,6,7-tetrahydro-3H-pyrrolo[1,2-c]imidazol-1-yl)-1-morpholinoethan-1-one]	43.9 % of control	18.2 % of control
[2H]C([2H])([2H])n1c(CC(=O)N[C@H]2CCOC2)c2n(c1=S)C[C@@]1(c3cc(Br)ccc3F)C[C@@H]21 [Example 461, 2-((5aS,6aR)-5a-(5-bromo-2-fluorophenyl)-2-(methyl-d)-3-thioxo-2,3,5,5a,6,6a-hexahydrocyclopropa[3,4]pyrrolo[1,2-c]imidazol-1-yl)-N—((S)-tetrahydrofuran-3-yl)acetamide]	45.6 % of control	6.9 % of control
[2H]C([2H])([2H])n1c(CC(=O)O)c2n(c1=S)C[C@@]1(c3cc(Br)ccc3F)C[C@@H]21 [Example 462, 2-((5aS,6aR)-5a-(5-bromo-2-fluorophenyl)-2-(methyl-d)-3-thioxo-2,3,5,5a,6,6a-hexahydrocyclopropa[3,4]pyrrolo[1,2-c]imidazol-1-yl)acetic Acid]	50.2 % of control	10.3 % of control
[2H]C([2H])([2H])n1c(CC(=O)NC2CCOCC2)c2n(c1=S)C[C@@]1(c3cc(Br)ccc3F)C[C@@H]21 [Example 463, 2-((5aS,6aR)-5a-(5-bromo-2-fluorophenyl)-2-(methyl-d)-3-thioxo-2,3,5,5a,6,6a-hexahydrocyclopropa[3,4]pyrrolo[1,2-c]imidazol-1-yl)-N-(tetrahydro-2H-pyran-4-yl)acetamide]	29.1 % of control	3.7 % of control
[2H]C([2H])([2H])n1c(CC(=O)N[C@@H]2CCCOC2)c2n(c1=S)C[C@@]1(c3cc(Br)ccc3F)C[C@@H]21 [Example 464, 2-((5aS,6aR)-5a-(5-bromo-2-fluorophenyl)-2-(methyl-d)-3-thioxo-2,3,5,5a,6,6a-hexahydrocyclopropa[3,4]pyrrolo[1,2-c]imidazol-1-yl)-N—((R)-tetrahydro-2H-pyran-3-yl)acetamide]	33.4 % of control	4.5 % of control
[2H]C([2H])([2H])n1c(CC(=O)N[C@@H]2CCOC2)c2n(c1=S)C[C@@]1(c3cc(Br)ccc3F)C[C@@H]21 [Example 465, 2-((5aS,6aR)-5a-(5-bromo-2-fluorophenyl)-2-(methyl-d)-3-thioxo-2,3,5,5a,6,6a-hexahydrocyclopropa[3,4]pyrrolo[1,2-c]imidazol-1-yl)-N—((R)-tetrahydrofuran-3-yl)acetamide]	62.3 % of control	9.0 % of control
CN(C(=O)Cc1c2n(c(=S)n1C)C[C@@]1(c3cc(Br)ccc3F)C[C@@H]21)[C@@H]1CCOC1 [Example 466, 2-((5aS,6aR)-5a-(5-bromo-2-fluorophenyl)-2-methyl-3-thioxo-2,3,5,5a,6,6a-hexahydrocyclopropa[3,4]pyrrolo[1,2-c]imidazol-1-yl)-N-methyl-N—((R)-tetrahydrofuran-3-yl)acetamide]	49.6 % of control	6.5 % of control
CN(C(=O)Cc1c2n(c(=S)n1C)C[C@@]1(c3c(F)ccc(Cl)c3F)C[C@@H]21)[C@@H]1CCOC1 [Example 467, 2-((5aS,6aR)-5a-(3-chloro-2,6-difluorophenyl)-2-methyl-3-thioxo-2,3,5,5a,6,6a-hexahydrocyclopropa[3,4]pyrrolo[1,2-c]imidazol-1-yl)-N-methyl-N—((R)-tetrahydrofuran-3-yl)acetamide]	27.9 % of control	4.0 % of control
CN(C(=O)Cc1c2n(c(=S)n1C)C[C@@]1(c3cc(Cl)ccc3F)C[C@@H]21)[C@@H]1CCOC1 [Example 468, 2-((5aS,6aR)-5a-(5-chloro-2-fluorophenyl)-2-methyl-3-thioxo-2,3,5,5a,6,6a-hexahydrocyclopropa[3,4]pyrrolo[1,2-c]imidazol-1-yl)-N-methyl-N—((R)-tetrahydrofuran-3-yl)acetamide]	65.8 % of control	13.1 % of control
[2H]C([2H])([2H])n1c(CC(=O)NC2CCOCC2)c2n(c1=S)C[C@H](c1c(F)ccc(Cl)c1F)C2 [Example 469, (S)-2-(6-(3-chloro-2,6-difluorophenyl)-2-(methyl-d)-3-thioxo-2,5,6,7-tetrahydro-3H-pyrrolo[1,2-c]imidazol-1-yl)-N-(tetrahydro-2H-pyran-4-yl)acetamide]	33.7 % of control	1.5 % of control
Fc1ccc(F)c([C@H]2Cc3c(CCN[C@@H]4CCOC4)[nH]c(=S)n3C2)c1F [Example 470]	112.0 % of control	79.4 % of control
CC(C)NCCCc1[nH]c(=S)n2c1C[C@H](c1c(F)ccc(F)c1F)C2 [Example 472, (R)-1-(3-(isopropylamino)propyl)-6-(2,3,6-trifluorophenyl)-2,5,6,7-tetrahydro-3H-pyrrolo[1,2-c]imidazole-3-thione hydrofluoride]	63.3 % of control	14.2 % of control
Cl.Fc1ccc(F)c([C@H]2Cc3c(CCNCC4CCOCC4)[nH]c(=S)n3C2)c1F [Example 473, (R)-1-(2-(((tetrahydro-2H-pyran-4-yl)methyl)amino)ethyl)-6-(2,3,6-trifluorophenyl)-2,5,6,7-tetrahydro-3H-pyrrolo[1,2-c]imidazole-3-thione hydrochloride]	98.9 % of control	46.2 % of control
Cn1c(CCN2CCCC2)c2n(c1=S)C[C@@H](c1c(F)ccc(F)c1F)C2 [Example 474, (R)-2-methyl-1-(2-(pyrrolidin-1-yl)ethyl)-6-(2,3,6-trifluorophenyl)-2,5,6,7-tetrahydro-3H-pyrrolo[1,2-c]imidazole-3-thione hydrofluoride]	92.5 % of control	79.3 % of control
Cl.Fc1ccc(F)c([C@H]2Cc3c(CCNC[C@@H]4CCCO4)[nH]c(=S)n3C2)c1F [Example 475, (R)-1-(2-((((S)-tetrahydrofuran-2-yl)methyl)amino)ethyl)-6-(2,3,6-trifluorophenyl)-2,5,6,7-tetrahydro-3H-pyrrolo[1,2-c]imidazole-3-thione hydrochloride]	85.0 % of control	67.0 % of control
Cn1c(CCNC(C)(C)C)c2n(c1=S)C[C@@H](c1c(F)ccc(F)c1F)C2 [Example 476, (R)-1-(2-(tert-butylamino)ethyl)-2-methyl-6-(2,3,6-trifluorophenyl)-2,5,6,7-tetrahydro-3H-pyrrolo[1,2-c]imidazole-3-thione Hydrofluoride]	94.3 % of control	64.8 % of control
